Measurements: patent US11013745B2, “Triazolopyrimidine, triazolopyridine compounds, and the composition thereof for treating PRC2-mediated diseases” (SHANGHAI INSTITUTE OF MATERIA MEDICA, CHINESE ACADEMY OF …, priority 2017, dated 2021)

Key:
[1] = Oral pharmacokinetics in rats; type: in vivo; conditions: male, SD, plasma, rat, intragastric, 3 mg/kg
Experimental: 1. Healthy male SD rats were used as test animals, EED226, […]-07 (3 mg/kg) were administered intragastrically, and the drug concentrations in rat plasma were determined by LC/MS/MS method at different time points after drug administration. The pharmacokinetic behavior of the compounds of the present invention in rats was studied, and the pharmacokinetic properties were evaluated. 2. The test animals were healthy adult male SD rats, with 3 rats in each group, purchased from Shanghai Xipuer-Bikai Laboratory Animal Limited Company. 3. Drug preparation: Compounds EED226, […] were dissolved in DMSO/0.5% HPMC (5/95, v/v) for preparation. The compound SL-ZYE-07 was dissolved in 0.5% HPMC (containing 0.5% Tween 80), vortexed, and sonicated to disperse the solid matter uniformly to obtain a pale white suspension. 4, Operation: EED226, […]-07 were administered to rats by intragastric administration (3 mg/kg), 45 μL of blood was taken through the femoral vein at 0.25, 0.5, 1, 2, 4, 8, 24 hour after administration, and centrifuged in a heparinized centrifuge tube for 5 min, and the plasma samples were separated for analysis. The contents of test compounds in rat plasma after intragastric administration of different compounds were determined by Liquid chromatography-mass spectrometry (LC-MS/MS).

[2] = Liver microsomal stability (mouse); type: in vitro ADME

`CS(=O)(=O)N1CC=C(c2cnc(NCc3c(F)ccc4c3CCO4)n3cnnc23)CC1` [E-Y13] gave an AUC(0-t) [1] of 529 ± 150 ng·h/mL, an AUC(0-inf) ([1]; extrapolated to infinity, read-out: AUCINF_obs) of 539 ± 150 ng·h/mL and an MRT inf ([1]; read-out: Average residence time MRTINF_obs) of 2.06 ± 0.484 h. The half-life ([1]; read-out: Half life T1/2 (converted)) was 1.37 ± 0.212 h, the Cmax ([1]; read-out: Peak concentration Cmax) was 376 ± 273 ng/mL and the “Clearance rate in vivo Clint In Vivo Extpl” value ([2]; mouse liver microsomes) was 1.50 mL/min. For the same compound, the “Intrinsic clearance rate in vivo Clint In Vitro” value ([2]; mouse liver microsomes) was 22.2 mL/min/gprot, the “Liver clearance rate Clint Hep In Vivo Extpl” value ([2]; mouse liver microsomes) was 1.00 mL/min and the “Metabolic bioavailability MF %” value ([2]; mouse liver microsomes) was 66.7%. For the same compound, the half-life ([2]; mouse, liver microsomes, pH 7.4, mouse liver microsomes, read-out: Half life T-half) was 1.58 h.
